Measured values from patent publication US20230126893A1, “[(1,4,5-TRISUBSTITUTED-1H-PYRAZOL-3-YL)SULFANYL]ACETIC ACID DERIVATIVES, SALTS THEREOF, AND USE THEREOF AS ACTIVE HERBICIDAL INGREDIENTS” (BAYER AKTIENGESELLSCHAFT, priority 2020, published 2023).

Tests used:
Format in all cases: in vivo
[1] = tested on: Alopecurus myosuroides; experiment: Pre-emergence herbicidal effect against ALOMY; conditions: 1280 g/ha, visual score after 3 weeks, 100% = plants have died, 0% = like control plants
In short: (§1)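 Seeds sown in sandy loam and covered with soil; WP or EC formulations sprayed onto the soil surface as aqueous suspension/emulsion at 600 to 800 L/ha water with 0.2% wetting agent. Greenhouse-grown; damage scored visually after 3 weeks versus untreated controls (0% = like control, 100% = plants dead).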

[2] = tested on: Digitaria sanguinalis; experiment: Pre-emergence herbicidal effect against DIGSA; conditions: 1280 g/ha, visual score after 3 weeks, 100% = plants have died, 0% = like control plants
In short: as §1

[3] = tested on: Echinochloa crus-galli; experiment: Pre-emergence herbicidal effect against ECHCG; conditions: 1280 g/ha, visual score after 3 weeks, 100% = plants have died, 0% = like control plants
In short: as §1

[4] = tested on: Lolium rigidum; experiment: Pre-emergence herbicidal effect against LOLRI; conditions: 1280 g/ha, visual score after 3 weeks, 100% = plants have died, 0% = like control plants
In short: as §1

[5] = tested on: Poa annua; experiment: Pre-emergence herbicidal effect against POAAN; conditions: 1280 g/ha, visual score after 3 weeks, 100% = plants have died, 0% = like control plants
In short: as §1

[6] = tested on: Setaria viridis; experiment: Pre-emergence herbicidal effect against SETVI; conditions: 1280 g/ha, visual score after 3 weeks, 100% = plants have died, 0% = like control plants
In short: as §1

[7] = tested on: Abutylon threophrasti; experiment: Pre-emergence herbicidal effect against ABUTH; conditions: 1280 g/ha, visual score after 3 weeks, 100% = plants have died, 0% = like control plants
Source text: (§2) 1. Pre-emergence herbicidal effect and crop plant compatibility Seeds of monocotyledonous and dicotyledonous weed plants and crop plants are laid out in sandy loam soil in wood-fibre pots and covered with soil. The compounds of the invention, formulated in the form of wettable powders (WP) or as emulsion concentrates (EC), are then applied to the surface of the covering soil as aqueous suspension or emulsion at a water application rate equating to 600 to 800 L/ha with addition of 0.2% wetting agent. After the treatment, the pots are placed in a greenhouse and kept under good growth conditions for the trial plants. The damage to the test plants is scored visually after a test period of 3 weeks by comparison with untreated controls (herbicidal activity in percent (%): 100% activity=the plants have died, 0% activity=like control plants). [table]

[8] = tested on: Bassia scoparia; experiment: Pre-emergence herbicidal effect against KCHSC; conditions: 1280 g/ha, visual score after 3 weeks, 100% = plants have died, 0% = like control plants
Source text: as §2

[9] = tested on: Tripleurospermum inodorum; experiment: Pre-emergence herbicidal effect against MATIN; conditions: 1280 g/ha, visual score after 3 weeks, 100% = plants have died, 0% = like control plants
In short: as §1

[10] = tested on: Stellaria media; experiment: Pre-emergence herbicidal effect against STEME; conditions: 1280 g/ha, visual score after 3 weeks, 100% = plants have died, 0% = like control plants
In short: as §1

[11] = tested on: Veronica persica; experiment: Pre-emergence herbicidal effect against VERPE; conditions: 1280 g/ha, visual score after 3 weeks, 100% = plants have died, 0% = like control plants
In short: as §1

[12] = tested on: Alopecurus myosuroides; experiment: Post-emergence herbicidal effect against ALOMY; conditions: 1280 g/ha, visual score after about 3 weeks, 100% = plants have died, 0% = like control plants
In short: (§3)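 Greenhouse-grown weeds in sandy loam, treated at one-leaf stage 2–3 weeks after sowing; compounds as WP or EC sprayed on foliage as aqueous suspension/emulsion at 600–800 l/ha water with 0.2% wetting agent. Visual rating after about 3 weeks versus untreated controls, 0% (like control) to 100% (plants dead).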

[13] = tested on: Digitaria sanguinalis; experiment: Post-emergence herbicidal effect against DIGSA; conditions: 1280 g/ha, visual score after about 3 weeks, 100% = plants have died, 0% = like control plants
In short: as §3

[14] = tested on: Echinochloa crus-galli; experiment: Post-emergence herbicidal effect against ECHCG; conditions: 1280 g/ha, visual score after about 3 weeks, 100% = plants have died, 0% = like control plants
In short: as §3

[15] = tested on: Lolium rigidum; experiment: Post-emergence herbicidal effect against LOLRI; conditions: 1280 g/ha, visual score after about 3 weeks, 100% = plants have died, 0% = like control plants
Procedure: [table] 2. Post-emergence herbicidal effect and crop plant compatibility Seeds of monocotyledonous and dicotyledonous weed and crop plants are laid out in sandy loam soil in wood-fibre pots, covered with soil and cultivated in a greenhouse under good growth conditions. 2 to 3 weeks after sowing, the test plants are treated at the one-leaf stage. The compounds of the invention, formulated in the form of wettable powders (WP) or as emulsion concentrates (EC), are then sprayed onto the green parts of the plants as aqueous suspension or emulsion at a water application rate equating to 600 to 800 l/ha with addition of 0.2% wetting agent. After the test plants have been left to stand in the greenhouse under optimal growth conditions for about 3 weeks, the action of the preparations is assessed visually in comparison to untreated controls (herbicidal action in percent (%): 100% activity=the plants have died, 0% activity=like control plants).

[16] = tested on: Poa annua; experiment: Post-emergence herbicidal effect against POAAN; conditions: 1280 g/ha, visual assessment about 3 weeks after treatment, 100% = plants have died, 0% = like control plants
In short: as §3

[17] = tested on: Setaria viridis; experiment: Post-emergence herbicidal effect against SETVI; conditions: 1280 g/ha, visual assessment about 3 weeks after treatment, 100% = plants have died, 0% = like control plants
In short: as §3

[18] = tested on: Abutylon threophrasti; experiment: Post-emergence herbicidal effect against ABUTH; conditions: 1280 g/ha, visual assessment about 3 weeks after treatment, 100% = plants have died, 0% = like control plants
In short: as §3

[19] = tested on: Bassia scoparia; experiment: Post-emergence herbicidal effect against KCHSC; conditions: 1280 g/ha, visual assessment about 3 weeks after treatment, 100% = plants have died, 0% = like control plants
In short: as §3

[20] = tested on: Tripleurospermum inodorum; experiment: Post-emergence herbicidal effect against MATIN; conditions: 1280 g/ha, visual assessment about 3 weeks after treatment, 100% = plants have died, 0% = like control plants
In short: as §3

[21] = tested on: Stellaria media; experiment: Post-emergence herbicidal effect against STEME; conditions: 1280 g/ha, visual assessment about 3 weeks after treatment, 100% = plants have died, 0% = like control plants
In short: as §3

[22] = tested on: Veronica persica; experiment: Post-emergence herbicidal effect against VERPE; conditions: 1280 g/ha, visual assessment about 3 weeks after treatment, 100% = plants have died, 0% = like control plants
In short: as §3

[23] = tested on: Amaranthus retroflexus; experiment: Pre-emergence herbicidal effect against AMARE; conditions: 1280 g/ha, visual score after 3 weeks, 100% = plants have died, 0% = like control plants
In short: as §1

[24] = tested on: Amaranthus retroflexus; experiment: Post-emergence herbicidal effect against AMARE; conditions: 1280 g/ha, visual assessment about 3 weeks after treatment, 100% = plants have died, 0% = like control plants
In short: as §3

SMILES	Pre-emergence action against ALOMY [1] [%]	Pre-emergence action against DIGSA [2] [%]	Pre-emergence action against ECHCG [3] [%]	Pre-emergence action against LOLRI [4] [%]	Pre-emergence action against POAAN [5] [%]	Pre-emergence action against SETVI [6] [%]	Pre-emergence action against ABUTH [7] [%]	Pre-emergence action against KCHSC [8] [%]	Pre-emergence action against MATIN [9] [%]	Pre-emergence action against STEME [10] [%]	Pre-emergence action against VERPE [11] [%]	Post-emergence action against ALOMY [12] [%]	Post-emergence action against DIGSA [13] [%]	Post-emergence action against ECHCG [14] [%]	Post-emergence action against POAAN [16] [%]	Post-emergence action against SETVI [17] [%]	Post-emergence action against ABUTH [18] [%]	Post-emergence action against KCHSC [19] [%]	Post-emergence action against MATIN [20] [%]	Post-emergence action against VERPE [22] [%]	further results
O=C(O)CSc1nn(-c2ccccc2F)c(-c2ccc(F)c(F)c2)c1Cl [Example I-014]	100	100	90	100	100	100	100	90	100	100	100	100	100	90	100	90	90	100	100	90	Post-emergence action against LOLRI [15]: 90%; Post-emergence action against STEME [21]: 100%
O=C(O)CSc1nn(-c2ccccc2F)c(-c2cncc(F)c2)c1Br [II-005]	100	100	100	100	100	100	90	90	100	100	100	100	100	100	100	100	90	90	100	100	Pre-emergence action against AMARE [23]: 100%; Post-emergence action against LOLRI [15]: 90%; Post-emergence action against AMARE [24]: 90%; Post-emergence action against STEME [21]: 100%
CCOC(=O)CSc1nn(-c2ccccc2F)c(-c2cncc(Cl)c2)c1Br [II-007]	100	100	100	100	100	100	90	100	100	100	100	100	100	100	100	90	90		100	100	Pre-emergence action against AMARE [23]: 100%; Post-emergence action against AMARE [24]: 100%; Post-emergence action against STEME [21]: 100%
CCOC(=O)C[S+]([O-])c1nn(-c2ccccc2F)c(-c2cncc(F)c2)c1Br (stereo not shown) [II-011]	100	100	100	100	100	100	90	100	100	100	100	100	100	100	100	100	90	100	90	90	Pre-emergence action against AMARE [23]: 100%; Post-emergence action against AMARE [24]: 90%; Post-emergence action against STEME [21]: 100%
COC(=O)CCNC(=O)CSc1nn(-c2ccccc2F)c(-c2cncc(F)c2)c1Br [VII-010]	90		90	100	100	100		90	100	90	100	90		90	100	90	90	90	90	90	Post-emergence action against LOLRI [15]: 90%
